Data from US10363261B2, “Enolase inhibitors and methods of treatment therewith” (Board of Regents, The University of Texas System, priority 2015, dated 2019).
Where “and” joins values, the source holds several entries; their conditions need not be identical. Equal values may be shown once.

What was measured:
[1] = tested on: D423 overexpressing ENO2; experiment: Sensitivity of D423 cells with re-expression of ENO2; assay type: cell-based, human
Protocol: Total cell number was quantified by Hoechst 33342 (Cat# H3570; Invitrogen). Apoptotic cells were counted by staining with propidium iodide. Apoptotic cells become permeable to propidium iodide while live cells are not stained. On the day of apoptosis survey, old media was removed and each well was filled to 100 μl with fresh media. Hoechst and propidium iodide were mixed in 1:100 PBS and 10 μl of the mixture was added in each well gently without touching the cells for a final dilution of 1:1000 from stock. Plates were then incubated at 37° C. for 2 hours. Image capture and quantification was done by High Content Screening System—Operetta (Perkin Elmer).
Cell proliferation of glioma cell lines was assayed either through crystal violet staining or by live-cell confluence measurements with the IncuCyte (Essen BioScience). […] Dye extraction was performed using 10% acetic acid solution, and absorbance was read at 595 nm. Apoptotic cells were counted by staining with YO-PRO®-1 Iodide (491/509, Life Technologies, Y3603). […] Total cell number was quantified by Hoechst 33342 (Cat# H3570 Invitrogen). […] Image capture and quantification was done by High Content Screening System—Operetta (Perkin Elmer). ATP content was measured with the luciferase/luciferin CellTiter-Glo® assay. […]

[2] = Hematocrit / hemolytic anemia after IV administration
Description: Erythrocytes are sensitive to disruptions in the glycolytic cycle as glycolysis is the cell's only source of energy in the form of ATP.

[3] = molecular target: ENO2 (Homo sapiens, UniProt P09104); experiment: Ligand-induced thermal shift assay on cell lysates (D423 overexpressing ENO2); assay type: binding; parameters: expressed in transfected cells; host or cells: D423 (D423-MG) human glioma cells, clone pCMV ENO2 1x
Protocol: Lysates: The lysates were prepared in 20 mM Tris-HCl, 1 mM EDTA and 1 mM β-mercaptoethanol at pH 7.4 and homogenized using a Polytron homogenizer three times for a period of 10 s followed by sonication, after which the lysates were cleared by centrifugation at 20,000 g for 10 minutes. Lysates were diluted (1:100) in Enolase enzymatic activity buffer as mentioned above. […] The lysates were then centrifuged at 20,000 g for 10 minutes. Supernatant and pellet were then separated and NuPage LDS Sample buffer (Life Technologies # NP0007) was added.
As an additional test of SF2312 binding to the enolase protein, ligand-induced thermal shift assays were performed on cell lysates under the same conditions as we performed the enzymatic assay (Martinez Molina, et al., 2013). The principal of the assay is that heat-denatured proteins precipitate out of solution when their hydrophobic core is exposed. As a result, heat denatured proteins disappear from the lysate after centrifugation, whereas native properly folded proteins remain in solution. The levels of specific proteins in the supernatant, such as non-denatured proteins, are followed by immunoblotting as a function of increasing temperature.

[4] = tested on: ENO1-intact glioma cells; experiment: Toxicity to ENO1-intact glioma cells during 13C-1 glucose tracing; assay type: cell-based, human; details: 10 μM, four days
Protocol: ^13C-1 glucose tracing by NMR treatment was performed with a concentration of SF2312 (10 μM) that is non-toxic to ENO1-intact glioma cells for four days, led to profound inhibition of glucose consumption (isomeric peaks at 97 and 93 ppm) and lactate production (single peak at 20 ppm) in the media of D423 and Gli56 ENO1 deleted but not ENO1-intact glioma cells (FIG. 33). At the same time, a single peak at 64 ppm became visible in the D423 and Gli56 ENO1-deleted cells treated with SF2312. The most likely origin of this peak is the C-3 atom glycerate, which has a reported ^13C peak of 64 ppm (Spectral Database of Organic Compounds, SDBS No. 18695) and is the atom on which the ^13C label derived from the C-1 atom on glucose is expected. […] Glycerate likely forms in response to enolase inhibition as 2-PGA or 3-PGA accumulate and (the substrates of the enzyme) spontaneously hydrolyze, or alternatively, are dephosphorylated by the action of glycerate kinase (GLYCTK, FIG. 41). These experiments were repeated with D423 ENO1-deleted and isogenic ENO1-rescued control glioma cells with both PhAH and SF2312 (FIGS. 32C & 32D). […] This effect is especially noticeable when expressed as a ratio of ^13C-glycerate to ^13C-lactate, metabolites upstream and downstream of the enolase reaction, respectively (FIG. 32D). […]

ENO2, sequence (P09104 whole entry): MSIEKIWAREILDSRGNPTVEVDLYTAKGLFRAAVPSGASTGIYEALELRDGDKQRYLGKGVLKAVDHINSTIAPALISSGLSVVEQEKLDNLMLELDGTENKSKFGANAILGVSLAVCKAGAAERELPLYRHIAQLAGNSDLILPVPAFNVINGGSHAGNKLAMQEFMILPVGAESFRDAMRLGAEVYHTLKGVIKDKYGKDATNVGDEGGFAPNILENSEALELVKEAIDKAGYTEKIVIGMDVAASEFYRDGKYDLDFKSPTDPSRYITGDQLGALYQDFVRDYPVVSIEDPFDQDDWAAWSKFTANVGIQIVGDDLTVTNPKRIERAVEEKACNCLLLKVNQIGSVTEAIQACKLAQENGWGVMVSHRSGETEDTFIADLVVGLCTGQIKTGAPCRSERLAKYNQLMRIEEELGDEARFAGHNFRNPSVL

For `O=C1C(P(=O)(O)O)CC(O)N1O` (racemic) [SF2312, 3-dihydroxyphosphoryl-1,5-dihydroxy-2-pyrrolidone], the “residual sensitivity to SF2312 relative to that of PhAH after re-expression of ENO2” value [1] was “at least 4 times”, the “hematocrit after treatment (drop from 45%)” value ([2]; 100 mg/kg IV for longer than a week) was 29% and the “dose at which mild hemolytic anemia can be observed” value ([2]; as low as) was 50 mg/kg. For the same compound, the “shift in the thermal denaturation of ENO2” value ([3]; 1 μM inhibitor) was > 7.5 °C and 7.5 °C, the “melting temperature of ENO2 with inhibitor” value ([3]; 1 μM, from ~67.5 ° C. without inhibitor) was over 75 °C and the “toxicity to ENO1-intact glioma cells” value [4] was “non-toxic”.
